Test results published in the CheMixHub viscosity set.
± gives the uncertainty stated by the source.

Experiment: xn = mol fraction of the nth substance listed
Details: 101.33 kPa

CCCCCCCCCCCC(=O)OCC + CCCCO
Details | viscosity [mPa·s]
293.15 K, x1 = 0.1001 | 2.703 ± 0.031
293.15 K, x1 = 0.2001 | 2.643 ± 0.03
293.15 K, x1 = 0.3002 | 2.654 ± 0.031
293.15 K, x1 = 0.4 | 2.718 ± 0.031
293.15 K, x1 = 0.5001 | 2.8 ± 0.032
293.15 K, x1 = 0.6002 | 2.891 ± 0.033
293.15 K, x1 = 0.6997 | 3.008 ± 0.034
293.15 K, x1 = 0.8 | 3.111 ± 0.036
293.15 K, x1 = 0.9001 | 3.225 ± 0.037
293.15 K, x2 = 0.1019 | 3.227 ± 0.13
293.15 K, x2 = 0.2001 | 3.082 ± 0.13
293.15 K, x2 = 0.3 | 2.969 ± 0.12
293.15 K, x2 = 0.4001 | 2.866 ± 0.12
293.15 K, x2 = 0.5 | 2.781 ± 0.11
293.15 K, x2 = 0.6 | 2.699 ± 0.11
293.15 K, x2 = 0.7 | 2.641 ± 0.11
293.15 K, x2 = 0.8 | 2.624 ± 0.11
293.15 K, x2 = 0.8999 | 2.688 ± 0.11
298.15 K, x2 = 0.1019 | 2.872 ± 0.12
298.15 K, x2 = 0.2001 | 2.757 ± 0.11
298.15 K, x2 = 0.3 | 2.645 ± 0.11
298.15 K, x2 = 0.4001 | 2.566 ± 0.11
298.15 K, x2 = 0.5 | 2.477 ± 0.1
298.15 K, x2 = 0.6 | 2.409 ± 0.099
298.15 K, x2 = 0.7 | 2.363 ± 0.097
298.15 K, x2 = 0.8 | 2.342 ± 0.096
298.15 K, x2 = 0.8999 | 2.395 ± 0.098
303.15 K, x1 = 0.0997 | 2.129 ± 0.025
303.15 K, x1 = 0.2001 | 2.093 ± 0.025
303.15 K, x1 = 0.2998 | 2.118 ± 0.025
303.15 K, x1 = 0.3532 | 2.142 ± 0.025
303.15 K, x1 = 0.4999 | 2.233 ± 0.026
303.15 K, x1 = 0.5982 | 2.313 ± 0.027
303.15 K, x1 = 0.6997 | 2.386 ± 0.028
303.15 K, x1 = 0.7986 | 2.474 ± 0.029
303.15 K, x1 = 0.9006 | 2.582 ± 0.03
303.15 K, x2 = 0.1019 | 2.575 ± 0.11
303.15 K, x2 = 0.2001 | 2.468 ± 0.1
303.15 K, x2 = 0.3 | 2.391 ± 0.098
303.15 K, x2 = 0.4001 | 2.309 ± 0.095
303.15 K, x2 = 0.5 | 2.241 ± 0.092
303.15 K, x2 = 0.6 | 2.164 ± 0.089
303.15 K, x2 = 0.7 | 2.122 ± 0.087
303.15 K, x2 = 0.8 | 2.092 ± 0.086
303.15 K, x2 = 0.8999 | 2.131 ± 0.087
308.15 K, x2 = 0.1019 | 2.311 ± 0.095
308.15 K, x2 = 0.2001 | 2.225 ± 0.091
308.15 K, x2 = 0.3 | 2.147 ± 0.088
308.15 K, x2 = 0.4001 | 2.084 ± 0.085
308.15 K, x2 = 0.5 | 2.015 ± 0.083
308.15 K, x2 = 0.6 | 1.943 ± 0.08
308.15 K, x2 = 0.7 | 1.9 ± 0.078
308.15 K, x2 = 0.8 | 1.868 ± 0.077
308.15 K, x2 = 0.8999 | 1.896 ± 0.078
313.15 K, x1 = 0.1 | 1.744 ± 0.021
313.15 K, x1 = 0.1724 | 1.724 ± 0.021
313.15 K, x1 = 0.2999 | 1.72 ± 0.021
313.15 K, x1 = 0.4004 | 1.742 ± 0.021
313.15 K, x1 = 0.4998 | 1.781 ± 0.021
313.15 K, x1 = 0.5998 | 1.818 ± 0.022
313.15 K, x1 = 0.7011 | 1.862 ± 0.022
313.15 K, x1 = 0.7997 | 1.927 ± 0.023
313.15 K, x1 = 0.8926 | 1.979 ± 0.023
313.15 K, x2 = 0.1019 | 2.112 ± 0.087
313.15 K, x2 = 0.2001 | 2.018 ± 0.083
313.15 K, x2 = 0.3 | 1.946 ± 0.08
313.15 K, x2 = 0.4001 | 1.881 ± 0.077
313.15 K, x2 = 0.5 | 1.816 ± 0.074
313.15 K, x2 = 0.6 | 1.754 ± 0.072
313.15 K, x2 = 0.7 | 1.709 ± 0.07
313.15 K, x2 = 0.8 | 1.685 ± 0.069
313.15 K, x2 = 0.8999 | 1.695 ± 0.069
318.15 K, x2 = 0.1019 | 1.934 ± 0.079
318.15 K, x2 = 0.2001 | 1.855 ± 0.076
318.15 K, x2 = 0.3 | 1.787 ± 0.073
318.15 K, x2 = 0.4001 | 1.725 ± 0.071
318.15 K, x2 = 0.5 | 1.66 ± 0.068
318.15 K, x2 = 0.6 | 1.605 ± 0.066
318.15 K, x2 = 0.7 | 1.563 ± 0.064
318.15 K, x2 = 0.8 | 1.529 ± 0.063
318.15 K, x2 = 0.8999 | 1.534 ± 0.063
323.15 K, x2 = 0.1019 | 1.745 ± 0.072
323.15 K, x2 = 0.2001 | 1.674 ± 0.069
323.15 K, x2 = 0.3 | 1.615 ± 0.066
323.15 K, x2 = 0.4001 | 1.563 ± 0.064
323.15 K, x2 = 0.5 | 1.508 ± 0.062
323.15 K, x2 = 0.6 | 1.447 ± 0.059
323.15 K, x2 = 0.7 | 1.399 ± 0.057
323.15 K, x2 = 0.8 | 1.374 ± 0.056
323.15 K, x2 = 0.8999 | 1.364 ± 0.056
